Measured values taken from ChEMBL document CHEMBL4425137, “Selective 5-HT2C receptor agonists: Design and synthesis of pyridazine-fused azepines” (Bioorg Med Chem Lett, 2016).

Columns and labels:
[1] = biological target: T1, 5-hydroxytryptamine receptor 2C (Homo sapiens, UniProt P28335); test: biochemical
T1 sequence (P28335 whole entry): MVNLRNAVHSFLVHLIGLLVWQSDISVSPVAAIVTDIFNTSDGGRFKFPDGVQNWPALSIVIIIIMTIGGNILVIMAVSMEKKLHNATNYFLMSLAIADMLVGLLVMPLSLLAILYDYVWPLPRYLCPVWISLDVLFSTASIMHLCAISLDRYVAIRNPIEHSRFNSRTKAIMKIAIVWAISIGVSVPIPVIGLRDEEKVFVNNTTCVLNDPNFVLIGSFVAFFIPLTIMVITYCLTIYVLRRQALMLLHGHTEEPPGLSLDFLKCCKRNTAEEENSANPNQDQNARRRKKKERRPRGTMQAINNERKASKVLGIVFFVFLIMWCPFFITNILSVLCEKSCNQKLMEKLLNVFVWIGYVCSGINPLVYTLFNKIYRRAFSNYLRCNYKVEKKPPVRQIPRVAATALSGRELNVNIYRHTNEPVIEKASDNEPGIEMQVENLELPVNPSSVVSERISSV
Description: Displacement of [3H]-mesulergine from recombinant human 5-HT2C receptor transfected in Swiss mouse 3T3 cells after 150 mins by scintillation proximity assay

in vitro [2] = details: human, liver microsomes
Description: (§1) Intrinsic clearance in human liver microsomes

in vitro [3] = details: dog, MDCK, permeability
Description: Permeability in RRCK cells

MDR1 = test: in vitro; details: dog, MDCK-MDR1, Ratio
Description: Efflux ratio of permeability from basolateral to apical side over apical to basolateral side in MDCK cells expressing MDR1

[4] = biological target: T1, 5-hydroxytryptamine receptor 2C
Description: Agonist activity at recombinant human 5-HT2C receptor transfected in CHOK1 cells assessed as calcium mobilization by FLIPR assay

physchem = details: octanol/water
Description: Lipophilicity, log D of the compound

5-HT2B receptor = 5-HT2B receptor (Homo sapiens, UniProt P41595); test: in vitro
Chain of 5-HT2B receptor (P41595 whole entry): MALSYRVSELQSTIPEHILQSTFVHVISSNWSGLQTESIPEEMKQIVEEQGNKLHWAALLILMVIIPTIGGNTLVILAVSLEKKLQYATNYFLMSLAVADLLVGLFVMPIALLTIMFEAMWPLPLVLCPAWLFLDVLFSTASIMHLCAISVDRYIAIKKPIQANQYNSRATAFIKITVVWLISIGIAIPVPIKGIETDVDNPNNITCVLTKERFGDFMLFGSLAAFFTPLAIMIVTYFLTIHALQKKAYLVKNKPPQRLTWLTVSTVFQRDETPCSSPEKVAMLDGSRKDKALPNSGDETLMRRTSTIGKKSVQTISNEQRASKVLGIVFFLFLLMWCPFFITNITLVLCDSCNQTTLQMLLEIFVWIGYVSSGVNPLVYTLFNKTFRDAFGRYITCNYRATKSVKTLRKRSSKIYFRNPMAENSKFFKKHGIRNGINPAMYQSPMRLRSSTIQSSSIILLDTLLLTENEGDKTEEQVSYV
Description: (§2) Agonist activity at recombinant human 5-HT2B receptor transfected in CHOK1 cells assessed as calcium mobilization at 10 uM by FLIPR assay

[5] = human, microsomes
Description: as §1

[6] = dog, mdckii-le
Description: Permeability in RRCK cells

[7] = biological target: T2, 5-hydroxytryptamine receptor 2B (Homo sapiens, UniProt P41595); details: 10 µM
T2 sequence (P41595 whole entry): as above
Description: as §2

[8] = biological target: T2, 5-hydroxytryptamine receptor 2B; test: Agonist activity at recombinant human 5-HT2B receptor transfected in CHOK1 cells assessed as calcium mobilization by FLIPR assay; assay type: cell-based

SMILES	Ki [1]	microsomal CLint (in vitro [2])	Papp (in vitro [3])	efflux ratio (MDR1)	EC50 [4]	logD (physchem)	Emax at 10 µM (5-HT2B receptor)	CLH [5]	permeability [6]	Emax [7]	EC50 [8]
Cc1c(Cc2ccccc2)nnc2c1CCNCC2	520 nM	< 8 µL/min/mg	14 ×10⁻⁶ cm/s	1.9	220 nM						
CC(c1ccccc1)c1cc2c(nn1)CCNCC2 (stereo in doubt; 15g)	200 nM	< 8 µL/min/mg	13 ×10⁻⁶ cm/s	1.8	190 nM	0.4	36%				
c1ccc(Cc2nnc3n2CCNCC3)cc1	> 10000 nM		2 ×10⁻⁶ cm/s	1.3	> 10000 nM	-0.3	0%	< 8000 µL/min/mg			
CC(c1ccccc1)c1cc2c(nn1)CCNCC2 (stereo in doubt; 15h)	170 nM				110 nM				14 ×10⁻⁶ cm/s	55%	
Fc1ccc(Cc2cc3c(nn2)CCNCC3)cc1	450 nM	< 7 µL/min/mg	14 ×10⁻⁶ cm/s	1.2	> 10000 nM	0.2	64%				
O=c1[nH]c2c(nc1Cc1ccccc1)CCNCC2	110 nM			3	70 nM	-0.1	24%	< 8000 µL/min/mg			
FC(F)(F)c1cccc(Cc2cc3c(nn2)CCNCC3)c1	250 nM	< 7 µL/min/mg	13 ×10⁻⁶ cm/s	1.7	750 nM	0.9	57%				450 nM
O=c1cc2c(nn1Cc1ccccc1)CCNCC2	10 nM		13 ×10⁻⁶ cm/s	1	30 nM	0.3	48%	< 7000 µL/min/mg			
O=c1c2c([nH]n1Cc1ccccc1)CCNCC2			< 1 ×10⁻⁶ cm/s		> 10000 nM	-0.5	0%				
c1ccc(Cc2cc3c(nn2)CCNCC3)cc1	80 nM	< 7 µL/min/mg	14 ×10⁻⁶ cm/s	1	130 nM	0	29%				
COc1ccccc1Cc1cc2c(nn1)CCNCC2	550 nM	9 µL/min/mg	16 ×10⁻⁶ cm/s	1.9	> 10000 nM	0.1	40%				
c1ccc(Cc2ncc3c(n2)CCNCC3)cc1								< 8000 µL/min/mg			
O=c1[nH]n(Cc2ccccc2)c2c1CCNCC2			< 1 ×10⁻⁶ cm/s	1.2	> 10000 nM	-0.1	0%	< 7000 µL/min/mg			
c1ccc(Cn2cc3c(n2)CCNCC3)cc1	2700 nM		13 ×10⁻⁶ cm/s	1		0.1	3%	< 7000 µL/min/mg			
Clc1ccc(Cc2cc3c(nn2)CCNCC3)cc1	120 nM	< 7 µL/min/mg	13 ×10⁻⁶ cm/s	1.3	310 nM	0.8	63%				410 nM
Clc1ccccc1Cc1cc2c(nn1)CCNCC2	200 nM	< 7 µL/min/mg	15 ×10⁻⁶ cm/s	1.1	310 nM	0.7	41%				800 nM
